Data taken from ChEMBL document CHEMBL1201862, “PubChem BioAssay data set” (2004).
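1) Cells in 96-well plates. 2) Compound, 48 h, 5 concentrations. 3) Linear interpolation between surrounding doses. 4) Unreached endpoint = highest concentration. At the GI50, growth is halved.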 The source made the active and inactive calls. Cut-off read from the data, not from the text of the source: active = GI50 up to about 1.1 µM and inactive = higher.

What was measured:
Assay in all cases: NCI anticancer screen, dose series, 48 h
[1] = test system: DMS-114
[2] = test system: KM-20L2
[3] = test system: XF498
[4] = test system: SNB-78
[5] = test system: LXFL 529
[6] = test system: HOP-18
[7] = test system: DMS-273
[8] = test system: M19-MEL
[9] = test system: RXF 631

| SMILES | GI50 [1] | GI50 [2] | GI50 [3] | GI50 [4] | GI50 [5] | GI50 [6] | GI50 [7] | GI50 [8] | GI50 [9] |
| --- | --- | --- | --- | --- | --- | --- | --- | --- | --- |
| OCC(O)C(O)C(O)c1nn(-c2ccc(F)cc2)c2nc3cc(Cl)c(Cl)cc3nc12 (stereo not drawn) | 21.3 µM (inactive) | 49.7 µM (inactive) | 11.4 µM (inactive) | 13.8 µM (inactive) | 28.1 µM (inactive) | 16.9 µM (inactive) | 15.9 µM (inactive) | 22 µM (inactive) |  |
| Brc1cc(C2OCCCO2)ccc1OCc1ccccc1 | 44.3 µM (inactive) | > 10 µM (inactive) | 59.3 µM (inactive) | 34.8 µM (inactive) | 45.9 µM (inactive) |  | 47.8 µM (inactive) | 66.5 µM (inactive) |  |
| O=C(/C=C/c1c(O)ccc2ccccc12)c1ccccc1Cl | 19.9 µM (inactive) | > 100 µM (inactive) | 23.3 µM (inactive) | 44.4 µM (inactive) | 31 µM (inactive) |  | 34.3 µM (inactive) | 14 µM (inactive) |  |
| CCCCCCCCC(=O)NCCCNCCCNC(=O)CCCCCCCC | 3.78 µM (inactive) | 2.53 µM (inactive) | 3.18 µM (inactive) | 10.9 µM (inactive) | 3.35 µM (inactive) | 11.9 µM (inactive) | 2.56 µM (inactive) | 3.93 µM (inactive) |  |
| N#C/C(=C\c1cc(OCc2ccccc2)c(OCc2ccccc2)cn1)C(N)=O | 81.3 µM (inactive) | > 100 µM (inactive) | > 100 µM (inactive) | > 100 µM (inactive) | > 100 µM (inactive) |  |  | > 100 µM (inactive) | > 100 µM (inactive) |
| O=C1C2CC=CCC2C(=O)C12CCc1ccccc12 (stereo not drawn) |  | > 100 µM (inactive) | > 100 µM (inactive) | > 100 µM (inactive) | > 100 µM (inactive) | 8.15 µM (inactive) | > 100 µM (inactive) | > 100 µM (inactive) |  |
| Cn1cnc([N+](=O)[O-])c1Sc1n[nH]c(-c2ccc(Cl)cc2)n1 | 18.2 µM (inactive) |  | 10.1 µM (inactive) | 19.8 µM (inactive) | 11.7 µM (inactive) | 1.47 µM (inactive) | 16.9 µM (inactive) | 19 µM (inactive) | 20.7 µM (inactive) |
| OCC1OC2c3ccccc3COC2C1OCc1ccccc1 (stereo not drawn) | 59.4 µM (inactive) | > 100 µM (inactive) | 49.2 µM (inactive) | > 100 µM (inactive) | 87.7 µM (inactive) | > 100 µM (inactive) |  | > 100 µM (inactive) | > 100 µM (inactive) |
| COc1ccc(Nc2nc3ccc(C(F)(F)F)cc3nc2-c2ccccc2)cc1OC | 38.7 µM (inactive) |  | 49.1 µM (inactive) |  | 43.2 µM (inactive) |  | 32.4 µM (inactive) |  | 39.6 µM (inactive) |
| COc1ccc(C(Cl)=C(c2ccc(OCCN(C)C)cc2)c2ccc(OCCN(C)C)cc2)cc1 | 1.6 µM (inactive) | 1.36 µM (inactive) | 1.46 µM (inactive) | 1.71 µM (inactive) |  |  | 1.86 µM (inactive) |  | 0.322 µM (active) |
| Cc1nc2nnnn2c2c1C(=O)Nc1ccccc1N2 | > 100 µM (inactive) | > 100 µM (inactive) | > 100 µM (inactive) | > 100 µM (inactive) | > 100 µM (inactive) | > 100 µM (inactive) | > 100 µM (inactive) | > 100 µM (inactive) |  |
| COc1ccc(CNc2cnc3ccc(N)cc3n2)cc1 | 2.09 µM (inactive) |  | > 100 µM (inactive) | 82.8 µM (inactive) |  | > 100 µM (inactive) | 0.0531 µM (active) | 0.243 µM (active) |  |
| NC1(CCCCCCCCCCC(=O)O)CNCCNCCNCCNC1 | 28.8 µM (inactive) | 24.9 µM (inactive) |  |  |  |  |  | 39.6 µM (inactive) |  |
| O=C(Cc1nc2ccccc2s1)NC12CC3CC(CC(C3)C1)C2 |  | > 100 µM (inactive) |  | > 100 µM (inactive) | > 100 µM (inactive) |  | > 100 µM (inactive) | > 100 µM (inactive) | > 100 µM (inactive) |
| Cc1ccc(C)c(NC(=O)CC/C(=N\NC(=O)c2c(O)ccc3ccccc23)C(C)C(=O)c2ccc(O)cc2)c1 (stereo not drawn) |  | 15.1 µM (inactive) | 44.3 µM (inactive) | 36.2 µM (inactive) | 30.5 µM (inactive) | 14.3 µM (inactive) | 26.9 µM (inactive) |  |  |
| COc1ccc2c(c1)C(=O)N1CCOC1C2C(=O)O (stereo not drawn) | > 100 µM (inactive) | > 100 µM (inactive) | > 100 µM (inactive) | > 100 µM (inactive) | > 100 µM (inactive) | > 100 µM (inactive) | 0.693 µM (active) | > 100 µM (inactive) | > 100 µM (inactive) |
| CN(C)CCNC(=O)c1cccc2[nH]c(-c3cccnc3)nc12 |  |  |  | 35 µM (inactive) |  | 25.2 µM (inactive) | 20.7 µM (inactive) | 20.2 µM (inactive) |  |
| COc1cc(C[P+](c2ccccc2)(c2ccccc2)c2ccccc2)cc(OC)c1OC | > 100 µM (inactive) | > 100 µM (inactive) | > 100 µM (inactive) | > 100 µM (inactive) | > 100 µM (inactive) |  | > 100 µM (inactive) | > 100 µM (inactive) |  |
| CCOC(=O)NC(=O)c1cn(CCN2CCN(C(=O)CNC(=O)CNC(=O)Cn3cc(C(=O)NC(=O)OCC)c(=O)[nH]c3=O)CC2)c(=O)[nH]c1=O | > 100 µM (inactive) | > 100 µM (inactive) | > 100 µM (inactive) | > 100 µM (inactive) | > 100 µM (inactive) | > 100 µM (inactive) | > 100 µM (inactive) | > 100 µM (inactive) |  |
| COC(=O)/C(=N\NC(N)=S)C(C#N)c1ccccc1 (stereo not drawn) | > 100 µM (inactive) | > 100 µM (inactive) | > 100 µM (inactive) | > 100 µM (inactive) | > 100 µM (inactive) |  |  | > 100 µM (inactive) |  |
| C/C1=C/C2OC(=O)C3(C)C2C(CC2(C)OC1=CC2=O)OC3(O)C(C)C (stereo not drawn) | 14.3 µM (inactive) | 21.8 µM (inactive) | 23.7 µM (inactive) | 35.2 µM (inactive) | 27.4 µM (inactive) | 37.8 µM (inactive) | 33 µM (inactive) | 34.4 µM (inactive) | 33.1 µM (inactive) |
| Cn1c(=O)c2c(nc3n2CCC(=O)N3)n(C)c1=O | > 100 µM (inactive) | > 100 µM (inactive) |  | > 100 µM (inactive) | > 100 µM (inactive) |  | > 100 µM (inactive) | > 100 µM (inactive) | > 100 µM (inactive) |
| O=C(NCCCC/N=c1/cccccc1NCCCCNC(=O)OCc1ccccc1)OCc1ccccc1 | 8.11 µM (inactive) | 11 µM (inactive) | 4.29 µM (inactive) | 24.6 µM (inactive) |  |  | 17.5 µM (inactive) | 20.2 µM (inactive) | 13.3 µM (inactive) |
| CCCCCCCCCCCCSC(=S)c1c(C)[nH]n(-c2ccccc2)c1=O | 6.84 µM (inactive) | 10.2 µM (inactive) |  | 29.8 µM (inactive) | 9.12 µM (inactive) | > 50 µM (inactive) |  |  | 13.2 µM (inactive) |
| CC(N)Cc1ccc(Cl)cc1 (stereo not drawn) |  | 47.2 µM (inactive) | > 100 µM (inactive) |  | > 100 µM (inactive) | > 100 µM (inactive) | > 100 µM (inactive) |  |  |
